# How the values were obtained:
# barnyard grass [1] = test: Test Example 4: herbicidal effect by soil treatment (Table 19, symbol H); assay type: in vivo, barnyard grass (Echinochloa crus-galli); settings: amount of applied herbicide 320 g/ha
# Procedure, shortened: (§1)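 Step 1: sow seeds in sterilized diluvial soil, cover ~1.5 cm. Step 2: spray diluted emulsion onto soil surface at predetermined rate. Step 3: greenhouse, 25–30° C, three weeks. Step 4: grade effect on each plant by earlier criteria.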
# windgrass [2] = test: Test Example 5: herbicidal effect by foliage application, plastic box (Table 20, symbol L); assay type: in vivo, windgrass (Apera spica-venti); settings: foliage application, AAH 320 g/ha, three weeks after application
# Procedure, shortened: (§2)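 Foliar spray test: emulsion formulation diluted in water to a set application rate, sprayed onto 14-day-old plants raised in diluvial soil at 25° C to 30° C under glass. Both herbicidal effect and crop effect rated visually three weeks later.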
# beet [3] = test: Test Example 5: effect on crop by foliage application, plastic box (Table 20, symbol f); assay type: in vivo; settings: AAH 320 g/ha, three weeks after application
# Description: (§3) [Test Example 5] Herbicidal Effect Test by Foliage Application
# (§4) Sterilized diluvial soil was placed in a plastic box having a length of 21 cm, a width of 13 cm, and a depth of 7 cm. The seeds of each of southern crabgrass, green foxtail, barnyard grass, wild oat, blackgrass, Italian ryegrass, windgrass, velvetleaf, redroot pigweed, lambsquarters, chickweed, false cleavers, persian speedwell, corn, soybean, rice, wheat, beet, and rapeseed were sowed in a spot-like manner and covered with the soil having a thickness of about 1.5 cm. Thereafter, the plants were grown in a greenhouse at 25° C. to 30° C. After 14-day growth of the plants, the emulsion agent of the compound of the present invention prepared according to Formulation Example 2 was diluted with water so as to achieve a predetermined herbicide amount, and the diluted emulsion agent was uniformly applied to a foliage part with a small-sized spray. Three weeks after the herbicide application, the effect of the herbicide on each plant was evaluated according to the criteria of Test Example 1.
# southern crabgrass = test: Test Example 4: herbicidal effect by soil treatment (Table 19, symbol F); assay type: in vivo, southern crabgrass (Digitaria ciliaris); settings: amount of applied herbicide 320 g/ha
# Procedure, shortened: as §1
# redroot pigweed = test: Test Example 4: herbicidal effect by soil treatment (Table 19, symbol N); assay type: in vivo, redroot pigweed (Amaranthus retroflexus); settings: amount of applied herbicide 320 g/ha
# Procedure, shortened: as §1
# corn [4] = test: Test Example 4: effect on crop by soil treatment (Table 19, symbol c); assay type: in vivo; settings: amount of applied herbicide 320 g/ha
# Description: (§5) [Test Example 4] Herbicidal Effect Test by Soil Treatment
# as §4, with “Subsequently,” for “Thereafter, the plants were grown in a greenhouse at 25° C. to 30° C. After 14-day growth of the plants,”, “the surface of the soil” for “a foliage part”, “spray. The plastic box was placed in a greenhouse at 25° C. to 30° C. for growth of the plants.” for “spray.”
# windgrass [5] = test: Test Example 4: herbicidal effect by soil treatment (Table 19, symbol L); assay type: in vivo, windgrass (Apera spica-venti); settings: amount of applied herbicide 320 g/ha
# Procedure, shortened: as §1
# rapeseed = test: Test Example 5: effect on crop by foliage application, plastic box (Table 20, symbol g); assay type: in vivo; settings: AAH 320 g/ha, three weeks after application
# Description: as §3, §4
# velvetleaf = test: Test Example 4: herbicidal effect by soil treatment (Table 19, symbol M); assay type: in vivo, velvetleaf (Abutilon theophrasti); settings: amount of applied herbicide 320 g/ha
# Procedure, shortened: as §1
# corn [6] = test: Test Example 5: effect on crop by foliage application, plastic box (Table 20, symbol c); assay type: in vivo; settings: AAH 320 g/ha, three weeks after application
# Procedure, shortened: as §2
# Italian ryegrass = test: Test Example 5: herbicidal effect by foliage application, plastic box (Table 20, symbol K); assay type: in vivo, Italian ryegrass (Lolium multiflorum); settings: foliage application, AAH 320 g/ha, three weeks after application
# Procedure, shortened: as §2
# beet [7] = test: Test Example 4: effect on crop by soil treatment (Table 19, symbol f); assay type: in vivo; settings: amount of applied herbicide 320 g/ha
# Description: as §5
# as §4, with “Subsequently,” for “Thereafter, the plants were grown in a greenhouse at 25° C. to 30° C. After 14-day growth of the plants,”, “the surface of the soil” for “a foliage part”, “spray. The plastic box was placed in a greenhouse at 25° C. to 30° C. for growth of the plants.” for “spray.”
# Chinese sprangletop = test: Test Example 3: herbicidal effect by foliage application, Wagner pot (Table 18, symbol D); assay type: in vivo, chinese sprangletop (Leptochloa chinensis); settings: 320 g/ha
# Procedure, shortened: (§6)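 Plants were sown in alluvial soil held under 0.1–0.5 cm standing water and grown 14 days in a greenhouse at 25–30 °C. An emulsifiable formulation, water-diluted to the set dose, was then sprayed onto the foliage, and effects were scored three weeks later using previously defined criteria.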
# green foxtail = test: Test Example 5: herbicidal effect by foliage application, plastic box (Table 20, symbol G); assay type: in vivo, green foxtail (Setaria viridis); settings: foliage application, AAH 320 g/ha, three weeks after application
# Procedure, shortened: as §2
# barnyard grass [8] = test: Test Example 3: herbicidal effect by foliage application, Wagner pot (Table 18, symbol H); assay type: in vivo, barnyard grass (Echinochloa crus-galli); settings: 320 g/ha
# Procedure, shortened: as §6
# directly sowed rice = test: Test Example 3: effect on crop by foliage application, Wagner pot (Table 18, symbol b); assay type: in vivo; settings: 320 g/ha
# Method: [Test Example 3] Herbicidal Effect Test by Foliage Application After alluvial soil was placed into 1/10000 are of Wagner pot, water was poured and mixed to form a submerged condition having a water depth of 0.1 cm to 0.5 cm. Seeds of barnyard grass, Chinese sprangletop, rice flat sedge, and rice were sowed and the pot was placed in a greenhouse at 25° C. to 30° C. for growth of the plants. After 14-day growth of the plants, the emulsion agent of the compound of the present invention prepared according to Formulation Example 2 was diluted with water so as to achieve a predetermined herbicide amount, and the diluted emulsion agent was uniformly applied to a foliage part with a small-sized spray. Three weeks after the herbicide application, the effect of the herbicide on each plant was evaluated according to the criteria of Test Example 1.
# wheat = test: Test Example 4: effect on crop by soil treatment (Table 19, symbol e); assay type: in vivo; settings: amount of applied herbicide 320 g/ha
# Description: as §5
# as §4, with “Subsequently,” for “Thereafter, the plants were grown in a greenhouse at 25° C. to 30° C. After 14-day growth of the plants,”, “the surface of the soil” for “a foliage part”, “spray. The plastic box was placed in a greenhouse at 25° C. to 30° C. for growth of the plants.” for “spray.”
# persian speedwell = test: Test Example 5: herbicidal effect by foliage application, plastic box (Table 20, symbol R); assay type: in vivo, Persian speedwell (Veronica persica); settings: foliage application, AAH 320 g/ha, three weeks after application
# Procedure, shortened: as §2
# blackgrass = test: Test Example 5: herbicidal effect by foliage application, plastic box (Table 20, symbol J); assay type: in vivo, blackgrass (Alopecurus myosuroides); settings: foliage application, AAH 320 g/ha, three weeks after application
# Procedure, shortened: as §2
# soybean = test: Test Example 4: effect on crop by soil treatment (Table 19, symbol d); assay type: in vivo; settings: amount of applied herbicide 320 g/ha
# Description: as §5
# as §4, with “Subsequently,” for “Thereafter, the plants were grown in a greenhouse at 25° C. to 30° C. After 14-day growth of the plants,”, “the surface of the soil” for “a foliage part”, “spray. The plastic box was placed in a greenhouse at 25° C. to 30° C. for growth of the plants.” for “spray.”
smiles,measurement,setting,value
"Cc1nn(C)c(=O)c(-c2c(-n3cc(Cl)cn3)sc3ccccc23)c1O [Compound No. 1-097, 5-hydroxy-2,6-dimethyl-4-(2-(4-chloro-1H-pyrazol-1-yl)benzo[b]thiophen-3-yl)pyridazin-3(2H)-one]","herbicidal effect rating, H: barnyard grass",barnyard grass [1],0 (Herbicidal rate of 5% or less (almost no effect))
same,"L: windgrass, herbicidal effect",windgrass [2],0 (Herbicidal rate of 5% or less (almost no effect))
same,"f: beet, effect on crop",beet [3],5 (Herbicidal rate of 90% or more (almost completely withered))
same,"herbicidal effect rating, F: southern crabgrass",southern crabgrass,0 (Herbicidal rate of 5% or less (almost no effect))
same,"herbicidal effect rating, N: redroot pigweed",redroot pigweed,1 (Herbicidal rate of 5% or more and less than 20%)
same,"effect rating on crop, c: corn",corn [4],0 (Herbicidal rate of 5% or less (almost no effect))
same,"herbicidal effect rating, L: windgrass",windgrass [5],0 (Herbicidal rate of 5% or less (almost no effect))
same,"g: rapeseed, effect on crop",rapeseed,5 (Herbicidal rate of 90% or more (almost completely withered))
same,"herbicidal effect rating, M: velvetleaf",velvetleaf,1 (Herbicidal rate of 5% or more and less than 20%)
same,"c: corn, effect on crop",corn [6],0 (Herbicidal rate of 5% or less (almost no effect))
same,"K: Italian ryegrass, herbicidal effect",Italian ryegrass,2 (Herbicidal rate of 20% or more and less than 40%)
same,"effect rating on crop, f: beet",beet [7],0 (Herbicidal rate of 5% or less (almost no effect))
same,"herbicidal effect on D (Chinese sprangletop), rating 0-5",Chinese sprangletop,0 (Herbicidal rate of 5% or less (almost no effect))
same,"G: green foxtail, herbicidal effect",green foxtail,0 (Herbicidal rate of 5% or less (almost no effect))
same,"herbicidal effect on H (barnyard grass), rating 0-5",barnyard grass [8],0 (Herbicidal rate of 5% or less (almost no effect))
same,"effect on crop b (directly sowed rice), rating 0-5",directly sowed rice,0 (Herbicidal rate of 5% or less (almost no effect))
same,"effect rating on crop, e: wheat",wheat,0 (Herbicidal rate of 5% or less (almost no effect))
same,"R: persian speedwell, herbicidal effect",persian speedwell,0 (Herbicidal rate of 5% or less (almost no effect))
same,"J: blackgrass, herbicidal effect",blackgrass,0 (Herbicidal rate of 5% or less (almost no effect))
same,"effect rating on crop, d: soybean",soybean,0 (Herbicidal rate of 5% or less (almost no effect))

# From US20230085307A1, “PYRIDAZINONE COMPOUND AND HERBICIDE” (NISSAN CHEMICAL CORPORATION, priority 2019, published 2023)
